Each structure is given as a SMILES string. Bounds are passed on as bounds.

In this assay the target is T1, PDE5A1 (Homo sapiens, UniProt O76074).
T1 construct: from tissue; host or cells: human platelets from fresh donor blood (10,000 x g supernatant of sonicated lysate)
The assay is described as follows: Inhibition of type 5 phosphodiesterase (PDE5) activity, modified SPA test with human platelet lysate. The format is biochemical. The conditions noted are these: 0.5 μM cGMP, read-out: PDE5A1 inhibitory values [measured as −log IC50 (mol/l)] (converted). The method, boiled down: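 Enzyme source is lysate from human platelets (10,000 g supernatant). Compound preincubated 5 min at 37° C in Tris pH 7.4 containing 1 μM motapizone and 10 nM of a PDE2 inhibitor. Reaction started with 0.5 μM cGMP ([3H] tracer) and run 15 min; SPA read-out, IC50 by non-linear regression.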
Consider `CCC(=O)N[C@H]1CC[C@@H](NC(=O)c2c(C)[nH]c3c(-c4ccc(F)cc4OCC4CC4)ncnc23)CC1` [Example E26, 4-[2-(Cyclopropylmethoxy)-4-fluorophenyl]-6-methyl-N-[cis-4-(propionylamino)cyclohexyl]-5H-pyrrolo[3,2-d]pyrimidine-7-carboxamide], for which the IC50 was under 1 nM.
Consider `COCC(=O)N[C@H]1CC[C@H](NC(=O)c2c(C)[nH]c3c(-c4cc(F)c(OC)cc4OCC4CC4)ncnc23)CC1` [Example E137, 4-[2-(Cyclopropylmethoxy)-5-fluoro-4-methoxyphenyl]-N-{trans-4-[(methoxyacetyl)amino]cyclohexyl}-6-methyl-5H-pyrrolo[3,2-d]pyrimidine-7-carboxamide], for which the IC50 is under 1 nM.
The result for `Cc1[nH]c2c(-c3ccc(F)cc3OCC3CC3)ncnc2c1C(=O)N[C@H]1CCN(C(=O)CO)C[C@@H]1O` (relative stereo) [Example F21, 4-[2-(Cyclopropylmethoxy)-4-fluorophenyl]-N-[(3S*,4S*)-3-hydroxy-1-(hydroxyacetyl)piperidin-4-yl]-6-methyl-5H-pyrrolo[3,2-d]pyrimidine-7-carboxamide] reads 1 to 10 nM.
On to `COCC(=O)N1CCC(NC(=O)c2c(C)[nH]c3c(-c4cc(C(C)C)ccc4OCC4CC4)ncnc23)CC1` [Example E158, 4-[2-(Cyclopropylmethoxy)-5-(propan-2-yl)phenyl]-N-[1-(methoxyacetyl)piperidin-4-yl]-6-methyl-5H-pyrrolo[3,2-d]pyrimidine-7-carboxamide], for which the IC50 is 1 to 10 nM.
The result for `COCC(=O)N1CC[C@@H](NC(=O)c2c(C)[nH]c3c(-c4cc(C)c(F)cc4OCC4CC4)ncnc23)[C@H](O)C1` (relative stereo) [Example E130, 4-[2-(Cyclopropylmethoxy)-4-fluoro-5-methylphenyl]-N-[(3R*,4R*)-3-hydroxy-1-(methoxyacetyl)piperidin-4-yl]-6-methyl-5H-pyrrolo[3,2-d]pyrimidine-7-carboxamide] reads under 1 nM.
The result for `Cc1[nH]c2c(-c3ccc(F)cc3OCC3CC3)ncnc2c1C(=O)N[C@H]1CC[C@@H](NC(=O)CO)CC1` [Example F15, 4-[2-(cyclopropylmethoxy)-4-fluorophenyl]-N-[cis-4-(glycoloylamino)cyclohexyl]-6-methyl-5H-pyrrolo[3,2-d]pyrimidine-7-carboxamide] reads under 1 nM; that for `COc1cc(-c2ncnc3c(C(=O)N[C@@H]4CCN(C(=O)CO)C4)c(C)[nH]c23)c(OCC2CC2)cc1F` [Example F111, 4-[2-(Cyclopropylmethoxy)-4-fluoro-5-methoxyphenyl]-N-[(3R)-1-glycoloylpyrrolidin-3-yl]-6-methyl-5H-pyrrolo[3,2-d]pyrimidine-7-carboxamide], under 1 nM.
`CC(=O)N[C@H]1CC[C@H](NC(=O)c2c(C)[nH]c3c(-c4ccc(F)cc4OCC4CC4)ncnc23)CC1` [Example E22, N-(trans-4-acetamidocyclohexyl)-4-[2-(cyclopropylmethoxy)-4-fluorophenyl]-6-methyl-5H-pyrrolo[3,2-d]pyrimidine-7-carboxamide]: the IC50 is under 1 nM.
The result for `COCC(=O)N1CC[C@@H](NC(=O)c2c(C)[nH]c3c(-c4cc(OC)ccc4OCC4CC4)ncnc23)C1` [Example E77, 4-[2-(Cyclopropylmethoxy)-5-methoxyphenyl]-N-[(3R)-1-(methoxyacetyl)pyrrolidin-3-yl]-6-methyl-5H-pyrrolo[3,2-d]pyrimidine-7-carboxamide] reads under 1 nM; that for `COc1cc(OCC2CC2)c(-c2ncnc3c(C(=O)N[C@H]4CC[C@@H](NC(C)=O)CC4)c(C)[nH]c23)cc1F` [Example E138, N-(cis-4-Acetamidocyclohexyl)-4-[2-(cyclopropylmethoxy)-5-fluoro-4-methoxyphenyl]-6-methyl-5H-pyrrolo[3,2-d]pyrimidine-7-carboxamide], under 1 nM.
The result for `CCOc1ccc(C(F)(F)F)cc1-c1ncnc2c(C(=O)NC3CCN(C(=O)[C@H](C)O)CC3)c(C)[nH]c12` [Example F64, 4-[2-Ethoxy-5-(trifluoromethyl)phenyl]-N-{1-[(2S)-2-hydroxypropanoyl]piperidin-4-yl}-6-methyl-5H-pyrrolo[3,2-d]pyrimidine-7-carboxamide] reads under 1 nM; that for `CCC(=O)N1CCC(NC(=O)c2c(C)[nH]c3c(-c4cc(OC)c(F)cc4OCC4CC4)nc(C)nc23)CC1` [Example E174, 4-[2-(Cyclopropylmethoxy)-4-fluoro-5-methoxyphenyl]-2,6-dimethyl-N-(1-propanoylpiperidin-4-yl)-5H-pyrrolo[3,2-d]pyrimidine-7-carboxamide], under 1 nM.
The same measure for `COc1ccc(-c2ncnc3c(C(=O)N[C@H]4CC[C@H](NC(C)=O)CC4)c(C)[nH]c23)c(OCC2CC2)c1` [Example E58, N-(trans-4-acetamidocyclohexyl)-4-[2-(cyclopropylmethoxy)-4-methoxyphenyl]-6-methyl-5H-pyrrolo[3,2-d]pyrimidine-7-carboxamide]: under 1 nM.
With `COCC(=O)N1CC[C@@H](NC(=O)c2c(C)[nH]c3c(-c4cc(F)ccc4OCC4CC4)ncnc23)C1` [Example E48, 4-[2-(Cyclopropylmethoxy)-5-fluorophenyl]-N-[(3R)-1-(methoxyacetyl)pyrrolidin-3-yl]-6-methyl-5H-pyrrolo[3,2-d]pyrimidine-7-carboxamide], the IC50 was 1 to 10 nM.
The same measure for `COCC(=O)N1CCC(NC(=O)c2c(C)[nH]c3c(-c4cc(C)c(F)cc4OCC4CC4)ncnc23)CC1` [Example E121, 4-[2-(Cyclopropylmethoxy)-4-fluoro-5-methylphenyl]-N-[1-(methoxyacetyl)piperidin-4-yl]-6-methyl-5H-pyrrolo[3,2-d]pyrimidine-7-carboxamide]: under 1 nM; for `CCC(=O)N1CC[C@H](O)[C@@H](NC(=O)c2c(C)[nH]c3c(-c4cc(OC)c(F)cc4OCC4CC4)ncnc23)C1` (relative stereo) [Example E117, 4-[2-(Cyclopropylmethoxy)-4-fluoro-5-methoxyphenyl]-N-[(3S*,4S*)-4-hydroxy-1-propionylpiperidin-3-yl]-6-methyl-5H-pyrrolo[3,2-d]pyrimidine-7-carboxamide]: under 1 nM.
As to `CCC(=O)N1CC[C@@H](NC(=O)c2c(C)[nH]c3c(-c4cc(F)ccc4OCC4CC4)ncnc23)[C@H](O)C1` (relative stereo) [Example E50, 4-[2-(Cyclopropylmethoxy)-5-fluorophenyl]-N-[(3R*,4R*)-3-hydroxy-1-propanoylpiperidin-4-yl]-6-methyl-5H-pyrrolo[3,2-d]pyrimidine-7-carboxamide], the IC50 was 1 to 10 nM.
For the molecule `CC(=O)N[C@H]1CC[C@H](NC(=O)c2c(C)[nH]c3c(-c4c(OCC5CC5)ccc5c4OCO5)ncnc23)CC1` [Example E5, N-(trans-4-acetamidocyclohexyl)-4-[5-(cyclopropylmethoxy)-1,3-benzodioxol-4-yl]-6-methyl-5H-pyrrolo[3,2-d]pyrimidine-7-carboxamide], the IC50 was under 1 nM.
The result for `Cc1[nH]c2c(-c3ccc(F)cc3OCC3CC3)ncnc2c1C(=O)NC1CCN(C(=O)[C@H](C)O)CC1` [Example F12, 4-[2-(Cyclopropylmethoxy)-4-fluorophenyl]-N-{1-[(2S)-2-hydroxypropanoyl]piperidin-4-yl}-6-methyl-5H-pyrrolo[3,2-d]pyrimidine-7-carboxamide] reads under 1 nM.
The same measure for `Cc1[nH]c2c(-c3ccc(F)cc3OCC3CC3)ncnc2c1C(=O)N[C@H]1CC[C@H](NC(=O)CO)CC1` [Example F13, 4-[2-(Cyclopropylmethoxy)-4-fluorophenyl]-N-[trans-4-(glycoloylamino)cyclohexyl]-6-methyl-5H-pyrrolo[3,2-d]pyrimidine-7-carboxamide]: under 1 nM; for `CCOc1ccc(F)cc1-c1ncnc2c(C(=O)NC3CCN(C(=O)[C@H](C)O)CC3)c(C)[nH]c12` [Example F33, 4-(2-Ethoxy-5-fluorophenyl)-N-{1-[(2S)-2-hydroxypropanoyl]piperidin-4-yl}-6-methyl-5H-pyrrolo[3,2-d]pyrimidine-7-carboxamide]: 1 to 10 nM.
The result for `Cc1cc(-c2ncnc3c(C(=O)N[C@@H]4CCN(C(=O)CO)C[C@H]4O)c(C)[nH]c23)c(OCC2CC2)cc1F` (relative stereo) [Example F81, 4-[2-(Cyclopropylmethoxy)-4-fluoro-5-methylphenyl]-N-[(3R*,4R*)-3-hydroxy-1-(hydroxyacetyl)piperidin-4-yl]-6-methyl-5H-pyrrolo[3,2-d]pyrimidine-7-carboxamide] reads under 1 nM; that for `Cc1[nH]c2c(-c3c(OCC4CC4)ccc4c3OCO4)ncnc2c1C(=O)N[C@H]1CC[C@H](NC(=O)[C@H](C)O)CC1` [Example F4, 4-[5-(cyclopropylmethoxy)-1,3-benzodioxol-4-yl]-N-(trans-4-{[(2S)-2-hydroxypropanoyl]amino}cyclohexyl)-6-methyl-5H-pyrrolo[3,2-d]pyrimidine-7-carboxamide], under 1 nM; that for `Cc1[nH]c2c(-c3cc(F)ccc3OCC3CC3)ncnc2c1C(=O)N[C@@H]1CCN(C(=O)[C@H](C)O)C1` [Example F29, 4-[2-(Cyclopropylmethoxy)-5-fluorophenyl]-N-{(3R)-1-[(2S)-2-hydroxypropanoyl]pyrrolidin-3-yl}-6-methyl-5H-pyrrolo[3,2-d]pyrimidine-7-carboxamide], 1 to 10 nM.
As for `COCC(=O)N1CCC(NC(=O)c2c(C)[nH]c3c(-c4ccc(OC)cc4OCC4CC4)ncnc23)CC1` [Example E57, 4-[2-(Cyclopropylmethoxy)-4-methoxyphenyl]-N-[1-(methoxyacetyl)piperidin-4-yl]-6-methyl-5H-pyrrolo[3,2-d]pyrimidine-7-carboxamide], the IC50 is under 1 nM.

(Values after US9376442B2, “Methylpyrrolopyrimidinecarboxamides” (Takeda GmbH, priority 2009, dated 2016).)
